Measurements from patent publication US11091515B2, “Polypeptide derived from CAP1 and pharmaceutical composition comprising same as effective ingredient” (Seoul National University Hospital, priority 2017, dated 2021).
Where no end group is shown, it is not given here.

Columns and labels:
[1] = target: T1, binding of resistin and CAP1 (Homo sapiens, UniProt Q9HD89); assay: In vitro pull down assay of mFc-hResistin with CAP1 from THP-1 cell lysates (western blot with CAP1 antibody); conditions: for inhibition of binding of resistin and CAP1: each peptide at 50 μM, mFC-hResistin 1 μg/ml
T1 construct: host or cells: CAP1: endogenous, THP-1 cell lysate
T1 sequence (Q9HD89 19-108): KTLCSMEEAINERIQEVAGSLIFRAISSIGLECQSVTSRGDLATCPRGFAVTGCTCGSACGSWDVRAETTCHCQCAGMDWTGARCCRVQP
Method: THP-1 cells were lysed with lysis buffer (20 mM Tris pH 7.5, 150 mM NaCl, 1% Triton X-100, 0.25% sodium deoxycholate, 1 mM EDTA, 1 Mm NaF, 1 mM Na3VO4, and, protease inhibitor cocktail) to extract proteins. mFc-hResistin (0.5 ug) protein and VS_peptide (SEQ ID NO: 2) at 10 μM, 100 μM, and 500 μM were added to the extracted THP-1 protein (500 μg), followed by incubation at 4° C. overnight. mFC beads (20 μl) were added, and the protein complexes were pulled down at 4° C. for 3 hours, and then washed three times with lysis buffer. Then, SDS-PAGE sample buffer containing β-mercaptoethanol was added, followed by boiling at 100° C. for 5 minutes, and then a supernatant was obtained through centrifugation. It was investigated by western blotting using the hCAP1 antibody and mFc-HRP antibody whether the binding of hCAP1 and mFc-hResistin was inhibited by VS_peptide. Specifically, THP-1 cell lysates were treated with 1 μg/ml of mFC-hResistin, treated with VS_peptide (SEQ ID NO: 2) at 10 μM, 100 μM, and 500 μM each, and then pulled down using Fc beads. The proteins bound to beads were separated by SDS-PAGE, and subjected to western blotting using the CAP1 antibody. THP-1 cell lysates were treated with mFC-hResistin (1 μg/ml) and each of the peptides of SEQ ID NOS: 1 to 7 at 50 μM each, and pulled down using Fc beads. Thereafter, the proteins bound to Fc beads were separated by SDS-PAGE, and then subjected to western blotting using the CAP1 antibody.

[2] = system: NF-κB (p65 phosphorylation); assay: NF-κB activity by p65 phosphorylation western blot in resistin-treated THP-1 cells; format: cell-based, human
Method: To investigate the effect of VS_peptide (SEQ ID NO: 2) on NF-κB activity, p65 phosphorylation was compared between the addition of VS_peptide (SEQ ID NO: 2) and the addition of AA_peptide (SEQ ID NO: 3). THP-1 cells were treated with resistin to activate NF-κB, and VS_peptide (SEQ ID NO: 2) and AA_peptide (SEQ ID NO: 3) were added, and then western blotting using the p-p65 antibody was performed for NF-κB activity.

[3] = system: AMPK (phosphorylation of AMPK and ACC, LDLR expression); assay: AMPK activity by western blot in HepG2 cells treated with AICAR and resistin; format: cell-based; conditions: peptide 50 μM, compared with addition of only resistin
Method: To investigate the effect of VS_peptide (SEQ ID NO: 2) on AMPK activity, AMPK phosphorylation was compared between the addition of VS_peptide (SEQ ID NO: 2) and the addition of AA_peptide (SEQ ID NO: 3). To investigate the effect of VS_peptide (SEQ ID NO: 2) on AMPK activity, HepG2 cells were treated with AICAR to activate AMPK and treated with resistin, and the cells were treated with VS_peptide (SEQ ID NO: 2) and AA_peptide (SEQ ID NO: 3) at 50 μM each. The western blotting was performed to investigate AMPK activity in HepG2 cells through the phosphorylation of AMPK, the phosphorylation of ACC, which is a substrate of AMPK, and the expression level of LDLR.

[4] = target: T2, binding of resistin and CAP1 (rhCAP1, mFc-hResistin) (Homo sapiens, UniProt Q9HD89); assay: Competitive ELISA, mFc-hResistin binding to plate-coated rhCAP1
T2 sequence (Q9HD89 19-108): T1 sequence (Q9HD89 19-108)
Method: Each well of a 96-well plate were coated with hCAP1 protein at a concentration of 2.5 μg/ml for 12 hours (overnight) at room temperature. Each well was washed two times with phosphate buffered saline (PBS, pH7.4). Each well was blocked with a blocking buffer containing 3% BAS at room temperature for 1 hour. The blocking buffer containing 3% BSA was mixed with 5 ug/ml mFc-hResistin protein and VS_peptide [SEQ ID NO: 2] at various concentrations (10 uM, 30 uM, 100 uM), followed by pre-incubation at room temperature for 1 hour. After the blocking solution was removed from the 96-well plate, 100 μl of the pre-incubated mixture of mFc-hResistin protein and VS_peptide (SEQ ID NO: 2) was dispensed in each well, followed by incubation at room temperature for 2 hours. Upon the completion of the incubation, each well was washed two times with PBS. After the anti-mouse-Fc-HRP antibody was diluted in a blocking buffer containing 3% BSA at 1:1000, 100 μl of the diluted antibody was dispensed in each well, followed by incubation at room temperature for 1 hour. Upon the completion of the incubation, each well was washed two times with PBS. […] After 100 μl of a stop solution was dispensed in each well, and the absorbance was measured at 450 nm using an ELISA reader. […] The resistin bound to the HRP-conjugated mFc antibody was measured by ELISA at an absorbance of 450 nm.

[5] = system: MDA-MB-231 cells; assay: Cell migration analysis of resistin-treated breast cancer cells; format: cell-based, human; conditions: MDA-MB-231, resistin 50 ng/ml, 30 μM and 50 μM, compared with AA_peptide
Method: MDA-MB-231 cells were suspended in DMEM medium (0.1% FBS), and then the suspension was added at a concentration of 1×10^5 cell/ml per well to uniformly spread throughout the upper chamber of 6-well Transwell. In the lower chamber, each of 50 μM VS_peptide (SEQ ID NO: 2) and AA_peptide (SEQ ID NO: 3) was mixed with DMEM medium (0.1% FBS), and resistin was added at 100 ng/ml. Thereafter, the cells were incubated in an incubator at 37° C. in 5% CO2 for 24 hours. The cells penetrating the Transwell were stained using Crystal violet staining, and then quantified using the Image J program.
MDA-MB-231 cells were suspended in DMEM medium, and then placed in 24-well plates at a concentration of 1×10^5 cell/ml per well. After 50 ng/ml of resistin was placed in each well, VS_peptide (SEQ ID NO: 2) and AA_peptide (SEQ ID NO: 3) were placed at 30 μM and 50 μM, respectively. Thereafter, the cells were incubated in an incubator at 37° C. and 5% CO2 for 6-15 hours. Thereafter, cell migration after 6 hours and 15 hours was observed using a microscope.

[6] = Peptide pharmacokinetics by PET imaging of radioisotope-labeled peptide; format: in vivo, mice; conditions: tail vein injection, PET images at 0-48 hours
Method: VS_peptide and albumin-conjugated VS_peptide were injected at 36-40 μCi per mouse into the tail vein of C57BL/6 normal mice. After the injection, PET images were acquired at intervals of 0, 1, 2, 4, 24, and 48 hours using the GENISYS[…] machine from Sofie Bioscience. After the image acquisition, pharmacokinetic data were obtained by monoexponential fitting using the image analysis program Amide.
To increase drug delivery efficiency and drug effect duration of VS_peptide (SEQ ID NO: 2), albumin was bound to the peptide. VS_peptide (SEQ ID NO: 2) and albumin-conjugated VS_peptide (SEQ ID NO: 2) were labeled with a radioisotope, and then injected at 36-40 uCi each into the tail vein of male mice aged 8 weeks. PET images were acquired at intervals of 0, 1, 2, 4, 24, and 48 hours, and kinetics of the peptide in the body were observed.

[7] = target: T3, binding of resistin and CAP1 in THP-1 cells (Homo sapiens, UniProt Q9HD89); assay: Immunoprecipitation of resistin/CAP1 from treated THP-1 cells; format: cell-based; conditions: THP-1 cells treated with resistin and peptide for 12 hours
T3 construct: endogenous in cells; host or cells: THP-1 cells (CAP1 endogenous)
T3 sequence (Q9HD89 19-108): T1 sequence (Q9HD89 19-108)
Method: THP-1 cells were treated with resistin or resistin and a peptide for 12 hours, and then lysed with lysis buffer (20 mM Tris pH 7.5, 150 mM NaCl, 1% Triton X-100, 0.25% sodium deoxycholate, 1 mM EDTA, 1mM NaF, 1mM Na3VO4, and protease inhibitor cocktail). The resistin antibody or CAP1 antibody was added to the cell lysates, followed by immunoprecipitation at 4° C. for 3 hours. Mouse IgG was added for control. Protein A/G agarose beads were added to the THP-1 protein and CAP1 antibody complex, followed by incubation, and then through centrifugation, only beads were left and the supernatant was removed. Thereafter, the proteins bound to beads were separated by SDS-PAGE, and after electrophoresis, the gel was transferred onto the polyvinylidene fluoride (PVDF, Millipore), and then blocked with 5% skim milk at room temperature for 30 minutes. […] After the incubation, the membrane was sufficiently washed at least three times for 10 minutes each, and bands were detected using ECL detection kit (Invitrogen, WP20005), and then analyzed. […]

Sequence	inhibition of binding of resistin and CAP1 [1]	p65 phosphorylation induced by resistin [2]	expression level of LDLR [3]	phosphorylation of ACC [3]	phosphorylation of AMPK [3]	also measured
AAAAGAAAAAAATSSGSDES (Synthetic AAA peptide) [Proline rich regions and VS replaced with A]	allowed the strongest binding of resistin and CAP1					
AAAAGPPPPPVSTSSGSDES (Synthetic pro1A peptide) [Proline rich-1 region replaced with A]	inhibited the binding of resistin and CAP1 at similar levels to the VS_peptide					
GPPPPPVSTS (Synthetic pep10 peptide) [Shortened peptide based on VS and proline rich-1]	inhibited the binding of resistin and CAP1 at similar levels to the VS_peptide					
PPPPGAAAAAVSTSSGSDES (Synthetic pro2A peptide) [Proline rich-2 region replaced with A]	inhibited the binding of resistin and CAP1 at similar levels to the VS_peptide					
PPPPGPPPPPAATSSGSDES (Synthetic AA peptide) [AA_peptide, VS replaced with AA; used as control peptide, reference compound]	failed to inhibit	not inhibited	similar	not increased	not increased	
PPPPGPPPPPVSTSSGSDES [VS_peptide]	effectively inhibited	inhibited	increased	increased	increased	OD value (450 nm) of resistin bound to CAP1 ([4]; addition of peptide vs non-addition, 10, 30, 100 uM, dose-dependent): decreased; inhibition at 100 µM ([4]; peptide at 100 μM, read-out: inhibitory effect on binding of resistin and CAP1): ~25%; amount of cell migration [5]: smaller; time the administered medicine remains in the body [6]: ≤ 4 h; binding of resistin and CAP1 in cells (bands in IP/western blot) [7]: no bands; amount of CAP1 binding to resistin ([1]; peptide at 10, 100 and 500 μM, dose-dependent): reduced
